One block for each compound: values may come before it. Calls of active or inactive are those of the source. No cut-off for these calls is given here.
Columns and labels:
[1] = molecular target: T1, Casein kinase I/MDM2 (Homo sapiens) (UniProt Q00987+P48729); assay: Inhibition of CK1-MDM2 complex in human A375 cells assessed as effect on p21 protein level at 0.2 to 40 uM after 24 hrs by immunoblotting analysis; format: cell-based; settings: A-375
A-375 [2] = assay: Cytotoxicity against human A375 cells assessed as reduction in cell number at 40 uM after 24 hrs by light microscopic analysis relative to control; format: functional, cell-based
[3] = molecular target: T1, Casein kinase I/MDM2 (Homo sapiens); assay: Inhibition of CK1-MDM2 complex in human A375 cells assessed as decrease in E2F1 protein level after 48 hrs by immunoblotting analysis; format: cell-based; settings: A-375
[4] = molecular target: T1, Casein kinase I/MDM2 (Homo sapiens); assay: Inhibition of CK1-MDM2 complex in human A375 cells assessed as increase in p21 protein level at 0.2 to 5 uM after 48 hrs by immunoblotting analysis; format: cell-based; settings: A-375
[5] = molecular target: T1, Casein kinase I/MDM2 (Homo sapiens); assay: Inhibition of CK1-MDM2 complex in human A375 cells assessed as decrease in […] protein level at 0.2 to 5 uM after 48 hrs by immunoblotting analysis; format: cell-based; settings: A-375
A-375 [6] = assay: Cell cycle arrest in human A375 cells assessed as accumulation at S phase at 20 uM after 48 hrs by FACS flow cytometric analysis (reference value: 25.1%); format: functional
A-375 [7] = assay: Cell cycle arrest in human A375 cells assessed as accumulation at G2-M phase at 10 uM after 48 hrs by FACS flow cytometric analysis (reference value: 17.3%); format: functional
A-375 [8] = assay: Cell cycle arrest in human A375 cells assessed as accumulation at S phase at 10 uM after 48 hrs by FACS flow cytometric analysis (reference value: 25.1%); format: functional
A-375 [9] = assay: Cell cycle arrest in human A375 cells assessed as accumulation at G2-M phase at 40 uM after 48 hrs by FACS flow cytometric analysis (reference value: 17.3%); format: functional
[10] = molecular target: Mitogen-activated protein kinase 15 (Homo sapiens, UniProt Q8TD08); assay: Inhibition of human ERK8 in presence of 5 uM ATP
[11] = molecular target: T1, Casein kinase I/MDM2 (Homo sapiens); assay: Inhibition of CK1-MDM2 complex in human A375 cells assessed as increase in MDM2 protein level at 0.2 to 5 uM after 48 hrs by immunoblotting analysis; format: cell-based; settings: A-375

T1 sequence (P48729 whole entry, looked up): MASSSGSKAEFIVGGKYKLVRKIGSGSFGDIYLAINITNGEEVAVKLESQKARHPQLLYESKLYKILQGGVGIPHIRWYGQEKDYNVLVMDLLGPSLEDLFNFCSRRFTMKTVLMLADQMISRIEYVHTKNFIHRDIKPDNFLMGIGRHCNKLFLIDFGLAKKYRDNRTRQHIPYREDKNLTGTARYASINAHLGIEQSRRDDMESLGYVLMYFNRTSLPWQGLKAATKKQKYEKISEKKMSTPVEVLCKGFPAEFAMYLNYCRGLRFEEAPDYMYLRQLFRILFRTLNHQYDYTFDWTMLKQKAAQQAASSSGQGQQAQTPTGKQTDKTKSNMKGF
T1 sequence (Q00987 whole entry, looked up): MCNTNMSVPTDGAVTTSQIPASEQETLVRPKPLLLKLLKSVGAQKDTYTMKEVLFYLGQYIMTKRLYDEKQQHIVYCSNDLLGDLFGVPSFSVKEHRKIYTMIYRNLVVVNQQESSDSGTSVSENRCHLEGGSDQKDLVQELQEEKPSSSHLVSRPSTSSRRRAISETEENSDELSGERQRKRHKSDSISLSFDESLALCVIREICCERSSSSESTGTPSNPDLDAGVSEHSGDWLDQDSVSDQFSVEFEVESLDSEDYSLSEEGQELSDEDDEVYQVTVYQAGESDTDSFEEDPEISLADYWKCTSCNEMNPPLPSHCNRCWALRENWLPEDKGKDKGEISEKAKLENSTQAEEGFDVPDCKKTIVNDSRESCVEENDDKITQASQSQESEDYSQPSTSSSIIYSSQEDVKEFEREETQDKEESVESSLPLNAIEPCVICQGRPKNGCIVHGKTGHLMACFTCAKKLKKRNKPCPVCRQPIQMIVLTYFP
Chain of Mitogen-activated protein kinase 15 (Q8TD08 whole entry): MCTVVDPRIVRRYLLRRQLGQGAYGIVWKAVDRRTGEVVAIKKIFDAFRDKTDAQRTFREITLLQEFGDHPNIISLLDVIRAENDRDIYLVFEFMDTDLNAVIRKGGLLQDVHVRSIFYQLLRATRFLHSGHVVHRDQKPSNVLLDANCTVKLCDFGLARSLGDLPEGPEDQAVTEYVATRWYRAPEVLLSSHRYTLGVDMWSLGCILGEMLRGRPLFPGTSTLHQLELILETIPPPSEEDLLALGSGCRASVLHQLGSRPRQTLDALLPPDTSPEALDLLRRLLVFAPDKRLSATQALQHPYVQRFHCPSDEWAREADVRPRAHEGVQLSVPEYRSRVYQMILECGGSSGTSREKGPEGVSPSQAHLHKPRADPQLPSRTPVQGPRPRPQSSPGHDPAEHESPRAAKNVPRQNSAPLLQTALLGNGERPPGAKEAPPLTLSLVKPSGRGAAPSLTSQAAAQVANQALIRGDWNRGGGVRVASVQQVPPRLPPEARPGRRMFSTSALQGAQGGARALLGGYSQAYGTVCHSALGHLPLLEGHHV

inhibition [1]: inactive
SMILES: CCCC(=O)Nc1n[nH]c2ncc(-c3cccnc3)cc12

inhibition [3]: Dose-dependent effect
SMILES: CC(=O)Nc1nccc(-c2c(-c3ccccc3)noc2C)n1
Activity (A-375 [2]): inactive

inhibition [4]: Active
inhibition [5]: Active
inhibition [11]: Active
SMILES: CC(=O)Nc1cccc(-c2cnc3[nH]nc(C)c3c2)c1
Activity (A-375 [6]): 14.2%
Activity (A-375 [7]): 12.8%
Activity (A-375 [8]): 12.6%
Activity (A-375 [9]): 8.54%
IC50 [10]: 400 nM

From ChEMBL document CHEMBL2429821, “A Casein kinase 1/Checkpoint kinase 1 pyrazolo-pyridine protein kinase inhibitor as novel activator of the p53 pathway” (Bioorg Med Chem Lett, 2013)
